The values below are quoted from earlier work in patent publication US12070034B2, “Synergistic herbicidal combinations” (UPL LTD, priority 2017, dated 2024).

The conditions of the series: acid form, before neutralisation with ammonium phosphate dibasic.

Regarding `O=C(O)COc1ccc(Cl)cc1Cl` [2,4-D acid], the solubility was 311 mg/I.

Take `Nc1c(Cl)c(Cl)nc(C(=O)O)c1Cl` [Picloram acid]: the solubility is on record as 560 mg/I.
